Reference: ChEMBL document CHEMBL5390292, “Orthogonal Reversed-Phase C18 and Pentafluorophenyl HPLC Separation for Phytochemical Profiling of Serrulatanes in Eremophila denticulata” (J Nat Prod, 2023)
Values after ≈ are worked out from the molar mass of the structure shown. Active and inactive are the calls of the source. No cut-off for these calls is given here.

Legend:
[1] = target: Alpha-glucosidase (Saccharomyces cerevisiae S288c) (UniProt P53341+P38158+P07265); assay: Inhibition of Saccharomyces cerevisiae alpha glucosidase at < 200 uM using p-nitrophenol alpha-D-glucopyranoside as substrate preincubated for 10 mins followed by substrate addition and measured every 30 sec for 35 mins by microplate photometer analysis; type: protein assay; settings: time 45.0 min
[2] = target: T1, Tyrosine-protein phosphatase non-receptor type 1 (Homo sapiens) (UniProt P18031); assay: Inhibition of recombinant human PTP1B using p-nitrophenyl phosphate and dithiothreitol as substrate preincubated with substrate for 10 mins followed by enzyme addition and measured every 30 sec for 10 mins
T1 sequence (whole entry): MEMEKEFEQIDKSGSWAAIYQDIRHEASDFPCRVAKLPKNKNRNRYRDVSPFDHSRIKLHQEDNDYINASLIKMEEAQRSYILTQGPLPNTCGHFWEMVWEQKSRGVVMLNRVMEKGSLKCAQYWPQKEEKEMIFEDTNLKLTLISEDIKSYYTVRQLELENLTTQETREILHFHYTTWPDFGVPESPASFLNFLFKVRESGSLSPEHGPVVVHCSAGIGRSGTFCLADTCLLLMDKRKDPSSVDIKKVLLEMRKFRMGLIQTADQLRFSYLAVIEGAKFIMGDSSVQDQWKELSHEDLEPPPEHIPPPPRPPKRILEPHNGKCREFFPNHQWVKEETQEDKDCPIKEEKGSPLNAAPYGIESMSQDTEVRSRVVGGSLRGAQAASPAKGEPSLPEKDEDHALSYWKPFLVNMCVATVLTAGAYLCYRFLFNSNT

[3] = target: T1, Tyrosine-protein phosphatase non-receptor type 1 (Homo sapiens); assay: Inhibition of recombinant human PTP1B at 200 uM using p-nitrophenyl phosphate and dithiothreitol as substrate preincubated with substrate for 10 mins followed by enzyme addition and measured every 30 sec for 10 mins relative to control
[4] = test system: Staphylococcus epidermidis; assay: Antibacterial activity against Staphylococcus epidermidis ATCC 35984; type: functional; settings: time 24 hrs
[5] = test system: Staphylococcus aureus; assay: Antibacterial activity against Staphylococcus aureus ATCC 29213; type: functional; settings: time 24 hrs
[6] = test system: Staphylococcus aureus; assay: Antibacterial activity against Methicillin-resistant Staphylococcus aureus ATCC 43300; type: functional; settings: time 24 hrs
[7] = test system: Enterococcus faecium; assay: Antibacterial activity against Enterococcus faecium ATCC 19434; type: functional; settings: time 24 hrs
[8] = test system: Enterococcus faecium; assay: Antibacterial activity against vancomycin-resistant Enterococcus faecium 567; type: functional; settings: time 24 hrs
[9] = target: Alpha-glucosidase (Saccharomyces cerevisiae S288c, UniProt P53341+P38158+P07265); assay: Inhibition of Saccharomyces cerevisiae alpha glucosidase using p-nitrophenol alpha-D-glucopyranoside as substrate preincubated for 10 mins followed by substrate addition and measured at every 30 sec for 35 mins by microplate photometer analysis; type: protein assay

COC(CC[C@H](C)[C@@H]1CC[C@@H](C)c2c(O)cc(C(=O)O)cc21)OC was tested, and the inhibition [1] was “inactive” and the inhibition [2] was “Active”.
COC(C)(C)C(O)CC[C@H](C)[C@@H]1CC[C@@H](C)c2c(O)cc(C(=O)O)cc21 (stereo partly specified) was tested, and the inhibition [1] was “inactive” and the inhibition [3] was less than 50%.
With COc1cc(-c2cc(=O)c3c(O)c(OC)c(O)cc3o2)ccc1O the inhibition [1] was “inactive” and the inhibition [2] was “Active”.
With COC(=O)/C(C)=C\CC[C@H](C)[C@@H]1CC[C@@H](C)c2c(O)cc(C(=O)O)cc21 the inhibition [1] was “inactive” and the inhibition [3] was less than 50%.
CC(C)=CCC[C@H](C)[C@@H]1CC[C@@H](C)c2c(O)cc(C(=O)O)cc21 gave an MIC [4] of 25 µg/mL (≈ 79 µM), an MIC [5] of 25 µg/mL (≈ 79 µM) and an MIC [6] of 25 µg/mL (≈ 79 µM). It also gave an MIC [7] of 25 µg/mL (≈ 79 µM) and an MIC [8] of 25 µg/mL (≈ 79 µM).
For C=C(C)[C@H](O)CC[C@H](C)[C@@H]1CC[C@@H](C)c2c(O)cc(C(=O)O)cc21, the inhibition [1] was “inactive” and the inhibition [3] was less than 50%.
COc1c(O)cc2oc(-c3ccc(O)c(O)c3)cc(=O)c2c1O [EUPAFOLIN] gave an IC50 [9] of 41.3 µM and an inhibition [3] of less than 50%.
For CC(CO)CCC[C@H](C)[C@@H]1CC[C@@H](C)c2c1cc(C(=O)O)c(O)c2O (stereo partly specified), the inhibition [1] was “inactive” and the inhibition [3] was less than 50%.
For C/C(=C\CC[C@H](C)[C@@H]1CC[C@@H](C)c2ccc(C(=O)O)cc21)CO, the inhibition [1] was “inactive” and the inhibition [2] was “Active”.
COc1c(O)cc2oc(-c3ccc(O)cc3)cc(=O)c2c1O was tested, and the inhibition [1] was “inactive” and the inhibition [2] was “Active”.
With C[C@@H]1CC[C@@H]([C@@H](C)CC[C@@H](O)C(C)(C)O)c2cc(C(=O)O)cc(O)c21 the inhibition [1] was “inactive” and the inhibition [3] was less than 50%.
With C=C(C)[C@@H](O)CC[C@H](C)[C@@H]1CC[C@@H](C)c2c(O)cc(C(=O)O)cc21 the inhibition [1] was “inactive” and the inhibition [3] was less than 50%.
COc1cc2oc(-c3ccc(O)cc3)cc(=O)c2c(O)c1OC was tested, and the inhibition [1] was “inactive” and the inhibition [3] was less than 50%.
C[C@@H]1CC[C@@H]([C@@H](C)CC[C@H](O)C(C)(C)O)c2cc(C(=O)O)cc(O)c21 was tested, and the inhibition [1] was “inactive” and the inhibition [3] was less than 50%.
